Data as given in US11325899B2, “Benzofurane and benzothiophene derivatives as PGE2 receptor modulators” (IDORSIA PHARMACEUTICALS LTD, priority 2017, dated 2022).

Each compound was assayed against T1, EP4 receptor (Homo sapiens, UniProt P35408) (assay: hEP4 cAMP assay (BT549 breast cancer cells, HTRF cAMP, PGE2 stimulation)). Conditions: antagonistic activity, PGE2 6 nM (EC80).
T1 construct: BT549 breast cancer cells, express high endogenous EP4 levels and very low EP2 levels; host or cells: BT549 breast cancer cells
T1 sequence (P35408 whole entry): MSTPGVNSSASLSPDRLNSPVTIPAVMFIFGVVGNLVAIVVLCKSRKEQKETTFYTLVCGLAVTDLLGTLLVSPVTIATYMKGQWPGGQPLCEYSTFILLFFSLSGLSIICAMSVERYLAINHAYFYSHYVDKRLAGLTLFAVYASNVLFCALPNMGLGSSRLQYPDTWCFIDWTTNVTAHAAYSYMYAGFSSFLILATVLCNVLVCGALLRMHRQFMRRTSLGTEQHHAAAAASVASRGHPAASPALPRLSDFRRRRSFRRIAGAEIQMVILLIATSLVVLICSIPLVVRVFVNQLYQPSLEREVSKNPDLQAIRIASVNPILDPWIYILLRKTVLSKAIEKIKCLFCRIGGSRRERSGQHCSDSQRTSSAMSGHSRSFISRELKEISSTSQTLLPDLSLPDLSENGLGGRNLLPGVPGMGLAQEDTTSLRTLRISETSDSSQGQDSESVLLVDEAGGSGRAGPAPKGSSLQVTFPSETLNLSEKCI
Type: cell-based
Outline: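 BT549 cells, with endogenous EP4 and very low EP2, were preincubated 45 min at room temperature with compound in HBSS/HEPES/BSA buffer with 2 mM IBMX. They were then stimulated 30 min with 6 nM PGE2 (EC80). cAMP was measured by HTRF competitive immunoassay against a calibrator; IC50 from duplicate dose-response as % of DMSO control.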

`CCCSc1cc(-c2cc(NCCc3c(C)sc4ccccc34)ncn2)ccc1C(=O)O` [Example 88, 4-{6-[2-(2-Methyl-benzo[b]thiophen-3-yl)-ethylamino]-pyrimidin-4-yl}-2-propylsulfanyl-benzoic acid] and `Cc1sc2ccccc2c1CCNc1cc(-c2ccc(C(=O)O)c(SC(C)C)c2)ncn1` [Example 91, 2-Isopropylsulfanyl-4-{6-[2-(2-methyl-benzo[b]thiophen-3-yl)-ethylamino]-pyrimidin-4-yl}-benzoic acid] are within 1.5-fold of each other in IC50: 695 nM for the first, 539 nM for the second.

Compared with `CCCSc1cc(-c2cc(NCCc3c(C)oc4ccccc34)ncn2)ccc1C(=O)O` [Example 89, 4-{6-[2-(2-Methyl-benzofuran-3-yl)-ethylamino]-pyrimidin-4-yl}-2-propylsulfanyl-benzoic acid], `Cc1oc2ccccc2c1CCNc1cc(-c2ccc(C(=O)O)c(SC(C)C)c2)ncn1` [Example 92, 2-Isopropylsulfanyl-4-{6-[2-(2-methyl-benzofuran-3-yl)-ethylamino]-pyrimidin-4-yl}-benzoic acid] is 1.7-fold lower in IC50: 1140 nM for the first, 672 nM for the second. The second is the more potent here.

Compared with `Cc1sc2c(C)cccc2c1CCNc1cc(-c2ccc(C(=O)O)c(SC(C)C)c2)ncn1` [Example 90, 4-{6-[2-(2,7-Dimethyl-benzo[b]thiophen-3-yl)-ethylamino]-pyrimidin-4-yl}-2-isopropylsulfanyl-benzoic acid], `Cc1sc2c(C)cc(F)cc2c1CCNc1cc(-c2ccc(C(=O)O)c(OC3CC3)c2)ncn1` [Example 195, 2-Cyclopropoxy-4-{6-[2-(5-fluoro-2,7-dimethyl-benzo[b]thiophen-3-yl)-ethylamino]-pyrimidin-4-yl}-benzoic acid] is 7-fold lower in IC50: 338 nM for the first, 48 nM for the second. The second is the more potent here.

`CCc1cc(-c2cc(NCCc3c(C)sc4c(C)cc(F)cc34)ncn2)cc(C)c1CC(=O)O` [Example 194, (2-Ethyl-4-{6-[2-(5-fluoro-2,7-dimethyl-benzo[b]thiophen-3-yl)-ethylamino]-pyrimidin-4-yl}-6-methyl-phenyl)-acetic acid] and `Cc1sc2c(C)cc(F)cc2c1CCNc1cc(-c2ccc(CC(=O)O)c(OC3CC3)c2)ncn1` [Example 196, (2-Cyclopropoxy-4-{6-[2-(5-fluoro-2,7-dimethyl-benzo[b]thiophen-3-yl)-ethylamino]-pyrimidin-4-yl}-phenyl)-acetic acid] are within 1.5-fold of each other in IC50: 71 nM for the first, 100 nM for the second.

`CCOc1cc(-c2cc(NCCc3c(C)sc4c(C)cc(F)cc34)ncn2)ccc1-c1cc(O)no1` [Example 202, 5-(2-Ethoxy-4-{6-[2-(5-fluoro-2,7-dimethyl-benzo[b]thiophen-3-yl)-ethylamino]-pyrimidin-4-yl}-phenyl)-isoxazol-3-ol [tautomeric form: 5-(2-ethoxy-4-(6-((2-(5-fluoro-2,7-dimethylbenzo[b]thiophen-3-yl)ethyl)amino)pyrimidin-4-yl)phenyl)isoxazol-3(2H)-one]] was tested, and the IC50 was 297 nM.
